Literature values, collected in US20030092774A1, “Methods for treating neoplastic, angiogenic, vascular, fibroblastic, and/or immunosuppressive iregularities of the eye and/or joint via administration of combretastatin based medicaments, and iontophoretic devices for delivering combretastatin based medicaments” (priority 2001, published 2003).

For `COc1ccc(/C=C\c2cc(OC)c(OC)c(OC)c2)cc1O` [combretastatin-A4, (cis)-1-(3′,4′,5′,-trimethoxyphenyl)-2-(3 ″-hydroxy-4″-methoxyphenyl)ethene], the “solubility in aqueous solution” value is given as “practically insoluble”.
